The values below come from PubChem BioAssay (NCI).

Among the test systems are KM12 colon; SK-OV-3 ovarian; HOP-62 NSCLC; LOX IMVI melanoma; A549 NSCLC; SNB-19 CNS; SK-MEL-28 melanoma; SN12C renal; HCT-15 colon; SR leukemia.
Holding throughout (assay): NCI anticancer screen, dose series, 48 h

Where “and” joins values, the source holds several entries; their conditions need not be identical. Equal entries are not always repeated.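 Tested at 5 concentrations; 48 h exposure; 96-well plates; endpoints linearly interpolated, else capped at highest concentration. The concentration for 50% growth inhibition is given as GI50. Definition used: TGI = concentration required for complete inhibition of growth.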

As to `C=C1C(=O)OC2C1C(OC(=O)/C(C)=C/C)CC(O)(CCl)C1C(O)C=C(C)C21O` (stereo not drawn), the TGI in the assay with KM12 colon is 49.8 µM; with SK-OV-3 ovarian, more than 100 µM; with HOP-62 NSCLC, more than 67.2 µM; with LOX IMVI melanoma it was 17.8 µM; in the assay with A549 NSCLC, more than 63.7 µM; in the assay on SNB-19 CNS it was more than 64.2 µM. Besides, the TGI with SK-MEL-28 melanoma worked out at 35 µM; in the assay with SN12C renal, 29.4 µM; with HCT-15 colon, 14.4 µM; in the assay with SR leukemia, 29.2 µM.
With `CCC1C(C)C=NN1c1nc(N)nc(C(C#N)=Nc2ccc(N(C)C)cc2)n1` (stereo not drawn), the GI50 in the assay on KM12 colon is 9.85 µM; in the assay with SK-OV-3 ovarian, 9.32 µM; in the assay on HOP-62 NSCLC, 18.8 µM; in the assay on LOX IMVI melanoma, 8.53 µM; in the assay with A549 NSCLC, 33.9 µM; in the assay on SNB-19 CNS it was more than 50 µM. The GI50 in the assay with SK-MEL-28 melanoma was 8.61 µM; with SN12C renal it was 9.76 µM; in the assay with HCT-15 colon, 15.6 µM; in the assay with SR leukemia it was 9.56 µM. Also, the TGI in the assay with KM12 colon was 18.6 µM; with SK-OV-3 ovarian it was 17.8 µM; in the assay with HOP-62 NSCLC, more than 50 µM; with LOX IMVI melanoma, 15.7 µM; in the assay with A549 NSCLC it was more than 50 µM; in the assay with SNB-19 CNS, more than 50 µM. Also, the TGI is 18.4 µM in the assay on SK-MEL-28 melanoma, 18.9 µM in the assay with SN12C renal, more than 50 µM with HCT-15 colon and more than 50 µM in the assay with SR leukemia.
For the molecule `Cc1ccc(S(=O)(=O)OCC#CCOS(=O)(=O)c2ccc(C)cc2)cc1`, the GI50 is 2.08 µM in the assay with KM12 colon; 6.51 µM with SK-OV-3 ovarian; 2.35 µM with HOP-62 NSCLC; 1.15 µM with LOX IMVI melanoma; 4.85 µM in the assay on A549 NSCLC; 7.11 µM in the assay with SNB-19 CNS. Further, the GI50 in the assay on SK-MEL-28 melanoma is 2.69 µM; with SN12C renal it was 3.89 µM; with HCT-15 colon, 3.2 µM; in the assay with SR leukemia, 1.27 µM. In addition, the TGI in the assay with KM12 colon was found to be 4.6 µM; in the assay on SK-OV-3 ovarian, 14.9 µM; in the assay on HOP-62 NSCLC, 5.69 µM; in the assay on LOX IMVI melanoma, 2.56 µM; with A549 NSCLC, 19.8 µM; in the assay with SNB-19 CNS, 22.2 µM. Besides, the TGI with SK-MEL-28 melanoma was determined as 7.8 µM; in the assay on SN12C renal, 17.3 µM; in the assay with HCT-15 colon, 14.9 µM; with SR leukemia, 3.89 µM.
With `Nc1ccccc1C#C/C=C\C#CC#C/C=C\C#Cc1ccccc1N`, the GI50 is 3.64 µM in the assay on KM12 colon; 22.8 µM in the assay on SK-OV-3 ovarian; 10.5 µM with HOP-62 NSCLC; 1.75 µM in the assay on LOX IMVI melanoma; 2.77 µM in the assay on A549 NSCLC; 16.2 µM in the assay on SNB-19 CNS. Further, the GI50 was 14.6 µM in the assay on SK-MEL-28 melanoma, 3.05 µM with SN12C renal, 3.74 µM in the assay on HCT-15 colon and 1.42 µM in the assay with SR leukemia. Besides, the TGI was more than 100 µM in the assay on KM12 colon; more than 100 µM with SK-OV-3 ovarian; 28.1 µM in the assay on HOP-62 NSCLC; 11.6 µM in the assay with LOX IMVI melanoma; 16.4 µM with A549 NSCLC; 64.8 µM in the assay with SNB-19 CNS. In addition, the TGI with SK-MEL-28 melanoma is 36.7 µM; with SN12C renal it was 16.4 µM; in the assay with HCT-15 colon, 24.2 µM; in the assay with SR leukemia, 7 µM.
As to `Cc1cccc(C)c1NC(=O)CCc1nnc2s/c(=C\c3ccc(N(C)C)cc3)c(=O)n12`, the TGI with KM12 colon, in the assay on SK-OV-3 ovarian, in the assay on HOP-62 NSCLC, with LOX IMVI melanoma, with A549 NSCLC and with SNB-19 CNS was more than 100 µM each time. Moreover, the TGI in the assay with SK-MEL-28 melanoma, in the assay on SN12C renal, in the assay with HCT-15 colon and in the assay with SR leukemia was more than 100 µM throughout.
As for `CCOC(=O)C(Cc1c[nH]c2cc(N(CCO)CCO)ccc12)(NC(C)=O)C(=O)OCC`, the GI50 in the assay on KM12 colon is 143 µM; with SK-OV-3 ovarian, 480 µM; in the assay with HOP-62 NSCLC, more than 1000 µM; in the assay on LOX IMVI melanoma it was 217 µM; in the assay with A549 NSCLC, 604 µM; with SNB-19 CNS, more than 1000 µM. In addition, the GI50 is 636 µM in the assay with SK-MEL-28 melanoma; 379 µM in the assay on SN12C renal; 758 µM in the assay on HCT-15 colon; 16.8 µM and 34.6 µM in the assay on SR leukemia. The TGI in the assay on KM12 colon is 463 µM; with SK-OV-3 ovarian it was more than 1000 µM; with HOP-62 NSCLC, more than 1000 µM; in the assay with LOX IMVI melanoma it was more than 1000 µM; in the assay on A549 NSCLC, more than 1000 µM; in the assay on SNB-19 CNS it was more than 1000 µM. In addition, the TGI with SK-MEL-28 melanoma, in the assay with SN12C renal and with HCT-15 colon was more than 1000 µM in each case.
Take `COc1cccc(/C=C/c2nc3c(cnn3-c3ccccc3)c(=O)[nH]2)c1`: the GI50 in the assay on KM12 colon is 25.5 µM; in the assay with SK-OV-3 ovarian, more than 100 µM; with HOP-62 NSCLC, 7.19 µM; in the assay with LOX IMVI melanoma it was more than 100 µM; in the assay on A549 NSCLC it was more than 39.6 µM; with SNB-19 CNS it was more than 51.9 µM. Further, the GI50 in the assay on SK-MEL-28 melanoma, in the assay on SN12C renal and in the assay with HCT-15 colon was more than 100 µM in each case. For the same molecule, the TGI with KM12 colon, in the assay with SK-OV-3 ovarian, in the assay with HOP-62 NSCLC, in the assay with LOX IMVI melanoma, in the assay with A549 NSCLC and in the assay with SNB-19 CNS was more than 100 µM in each case. The TGI with SK-MEL-28 melanoma, in the assay on SN12C renal, in the assay with HCT-15 colon and in the assay with SR leukemia was more than 100 µM in each case.
With `COC(=O)CCC(=O)N1C/C(=C\c2ccccc2)C(=O)/C(=C/c2ccccc2)C1`, the TGI in the assay on KM12 colon is 2.84 µM; in the assay on SK-OV-3 ovarian, 13.9 µM; in the assay with HOP-62 NSCLC, 28.7 µM; in the assay on LOX IMVI melanoma it was 1.59 µM; in the assay on A549 NSCLC it was 12.3 µM; in the assay on SNB-19 CNS, 14.5 µM. The TGI was determined as 4.24 µM in the assay on SK-MEL-28 melanoma, 3.44 µM in the assay on SN12C renal, 2.43 µM in the assay on HCT-15 colon and 12.2 µM in the assay with SR leukemia.
Consider `Cc1cc(C(=O)/C=C/c2ccc[nH]2)ccc1-n1ccc(C(F)(F)F)n1`, for which the GI50 with KM12 colon is 1.01 µM; in the assay on SK-OV-3 ovarian, 46.8 µM; with HOP-62 NSCLC it was 34.8 µM; in the assay with LOX IMVI melanoma it was 34.8 µM; in the assay with A549 NSCLC, 6.82 µM; with SNB-19 CNS it was 21.4 µM. The GI50 in the assay with SK-MEL-28 melanoma is 41.8 µM; with SN12C renal, 6.44 µM; in the assay on HCT-15 colon, 11.1 µM; in the assay on SR leukemia it was 3.72 µM. In addition, the TGI in the assay with KM12 colon, in the assay on SK-OV-3 ovarian, in the assay on HOP-62 NSCLC, in the assay with LOX IMVI melanoma, in the assay on A549 NSCLC and in the assay on SNB-19 CNS was more than 100 µM in each case. Further, the TGI in the assay on SK-MEL-28 melanoma is more than 100 µM; in the assay with SN12C renal, more than 100 µM; in the assay on HCT-15 colon it was more than 100 µM; in the assay on SR leukemia, 80.1 µM.
